Results taken from BindingDB's records for patent US20230303553 (Jiangsu Tasly Diyi Pharmaceutical, 2023).

Biological target: Cyclin-dependent kinase 6 (Homo sapiens, UniProt Q00534)
Assay: CDK6 Kinase Activity Analysis and Detection Method

Cyclin-dependent kinase 6, sequence (Q00534 whole entry): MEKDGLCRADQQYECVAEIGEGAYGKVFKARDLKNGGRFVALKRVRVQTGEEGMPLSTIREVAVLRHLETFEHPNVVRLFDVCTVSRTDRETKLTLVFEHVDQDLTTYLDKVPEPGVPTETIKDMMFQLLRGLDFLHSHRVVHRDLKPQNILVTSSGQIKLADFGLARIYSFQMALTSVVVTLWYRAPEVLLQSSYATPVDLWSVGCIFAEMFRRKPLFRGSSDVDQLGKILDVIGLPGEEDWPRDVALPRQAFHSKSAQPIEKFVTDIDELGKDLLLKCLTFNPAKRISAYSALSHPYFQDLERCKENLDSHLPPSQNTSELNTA

IC50: 127 nM
SMILES: CCN1CCN(C(=O)c2ccc(Nc3ncc(F)c(-c4ccc5nc(C)sc5c4)n3)nc2)CC1 [US20230303553, Example 12]
